Reference: US8044069B2, “Compounds as calcium channel blockers” (Abbott Laboratories, priority 2008, dated 2011)

Each compound was assayed against human Cav2.2 (Homo sapiens, UniProt Q00975) (assay: Assessment of calcium channel activity using FLIPR (Ca2+ influx in IMR32 cells)). Conditions: IMR32 cells endogenously expressing human Cav2.2; 60 minute pre-incubation; 2 μM nifedipine; depolarized with 80 mM KCl, 5 mM CaCl2.
Type: cell-based
How it was run: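 IMR32 cells were dye-loaded and pre-incubated 60 min with compound (10 μM to 0.1 nM) in 1.3 mM CaCl2 plus 2 μM nifedipine to block L-type channels. Cells were then depolarized with 80 mM KCl while Ca2+ was raised to 5 mM, and FLIPR read the influx. IC50 came from a sigmoidal fit of % inhibition versus the no-inhibitor control.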

human Cav2.2, sequence (Q00975 whole entry): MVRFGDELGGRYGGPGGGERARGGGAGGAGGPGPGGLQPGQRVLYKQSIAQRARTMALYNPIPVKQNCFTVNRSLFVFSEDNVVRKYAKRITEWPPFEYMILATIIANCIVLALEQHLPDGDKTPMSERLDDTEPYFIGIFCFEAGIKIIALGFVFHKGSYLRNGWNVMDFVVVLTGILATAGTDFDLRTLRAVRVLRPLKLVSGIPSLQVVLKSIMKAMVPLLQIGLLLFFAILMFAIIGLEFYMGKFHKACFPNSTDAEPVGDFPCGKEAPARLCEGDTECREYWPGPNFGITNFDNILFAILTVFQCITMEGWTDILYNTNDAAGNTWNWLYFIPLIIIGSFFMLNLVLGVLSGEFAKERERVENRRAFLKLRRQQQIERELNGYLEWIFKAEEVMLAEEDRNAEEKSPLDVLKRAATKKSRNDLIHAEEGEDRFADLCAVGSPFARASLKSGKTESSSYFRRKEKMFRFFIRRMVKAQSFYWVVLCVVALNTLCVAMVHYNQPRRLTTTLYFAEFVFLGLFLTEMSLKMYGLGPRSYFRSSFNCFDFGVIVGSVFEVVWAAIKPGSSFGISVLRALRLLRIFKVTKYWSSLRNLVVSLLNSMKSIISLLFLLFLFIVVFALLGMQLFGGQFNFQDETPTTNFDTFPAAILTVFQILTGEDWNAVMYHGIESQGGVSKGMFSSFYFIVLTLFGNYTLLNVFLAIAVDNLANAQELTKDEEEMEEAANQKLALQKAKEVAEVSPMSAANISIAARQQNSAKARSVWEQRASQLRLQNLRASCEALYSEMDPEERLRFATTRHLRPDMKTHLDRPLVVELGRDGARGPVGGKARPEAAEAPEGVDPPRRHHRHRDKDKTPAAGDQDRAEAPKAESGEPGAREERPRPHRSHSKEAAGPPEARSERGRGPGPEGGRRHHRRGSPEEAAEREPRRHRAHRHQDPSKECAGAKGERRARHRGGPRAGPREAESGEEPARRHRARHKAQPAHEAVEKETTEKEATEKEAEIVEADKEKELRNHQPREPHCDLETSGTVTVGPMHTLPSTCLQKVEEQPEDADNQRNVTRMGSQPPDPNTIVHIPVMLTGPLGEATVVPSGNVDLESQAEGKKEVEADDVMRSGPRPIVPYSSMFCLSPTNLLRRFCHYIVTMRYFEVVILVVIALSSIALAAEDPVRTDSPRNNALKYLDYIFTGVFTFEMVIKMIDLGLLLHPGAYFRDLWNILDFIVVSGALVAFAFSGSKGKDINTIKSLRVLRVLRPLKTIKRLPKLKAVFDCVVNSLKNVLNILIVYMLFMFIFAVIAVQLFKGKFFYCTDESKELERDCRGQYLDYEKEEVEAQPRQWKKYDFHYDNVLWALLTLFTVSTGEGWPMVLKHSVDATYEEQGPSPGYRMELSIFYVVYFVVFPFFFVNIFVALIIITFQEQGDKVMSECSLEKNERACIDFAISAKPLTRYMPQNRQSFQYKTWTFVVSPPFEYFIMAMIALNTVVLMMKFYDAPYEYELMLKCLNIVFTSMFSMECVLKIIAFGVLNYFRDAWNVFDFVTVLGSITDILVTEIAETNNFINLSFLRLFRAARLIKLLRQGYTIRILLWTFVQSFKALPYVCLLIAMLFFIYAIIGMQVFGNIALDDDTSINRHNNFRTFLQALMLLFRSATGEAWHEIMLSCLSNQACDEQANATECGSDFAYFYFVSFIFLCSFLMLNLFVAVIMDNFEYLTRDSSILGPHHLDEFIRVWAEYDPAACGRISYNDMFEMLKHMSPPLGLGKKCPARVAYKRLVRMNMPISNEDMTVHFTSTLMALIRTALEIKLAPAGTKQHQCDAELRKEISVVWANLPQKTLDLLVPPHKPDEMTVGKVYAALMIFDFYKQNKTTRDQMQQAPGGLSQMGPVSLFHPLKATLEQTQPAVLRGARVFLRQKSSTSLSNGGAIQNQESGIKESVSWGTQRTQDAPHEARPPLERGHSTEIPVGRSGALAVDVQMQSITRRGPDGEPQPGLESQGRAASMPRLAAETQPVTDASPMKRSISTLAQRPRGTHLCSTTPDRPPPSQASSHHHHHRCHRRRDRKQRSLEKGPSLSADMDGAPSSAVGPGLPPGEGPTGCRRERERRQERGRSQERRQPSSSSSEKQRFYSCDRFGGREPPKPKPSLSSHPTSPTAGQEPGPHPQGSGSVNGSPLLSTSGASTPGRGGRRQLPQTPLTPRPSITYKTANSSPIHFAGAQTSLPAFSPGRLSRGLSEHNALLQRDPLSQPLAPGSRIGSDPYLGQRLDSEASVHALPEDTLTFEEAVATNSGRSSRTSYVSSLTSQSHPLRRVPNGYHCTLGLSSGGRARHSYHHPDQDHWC
human Cav2.2, sequence (P54289 25-951 partner limits assumed): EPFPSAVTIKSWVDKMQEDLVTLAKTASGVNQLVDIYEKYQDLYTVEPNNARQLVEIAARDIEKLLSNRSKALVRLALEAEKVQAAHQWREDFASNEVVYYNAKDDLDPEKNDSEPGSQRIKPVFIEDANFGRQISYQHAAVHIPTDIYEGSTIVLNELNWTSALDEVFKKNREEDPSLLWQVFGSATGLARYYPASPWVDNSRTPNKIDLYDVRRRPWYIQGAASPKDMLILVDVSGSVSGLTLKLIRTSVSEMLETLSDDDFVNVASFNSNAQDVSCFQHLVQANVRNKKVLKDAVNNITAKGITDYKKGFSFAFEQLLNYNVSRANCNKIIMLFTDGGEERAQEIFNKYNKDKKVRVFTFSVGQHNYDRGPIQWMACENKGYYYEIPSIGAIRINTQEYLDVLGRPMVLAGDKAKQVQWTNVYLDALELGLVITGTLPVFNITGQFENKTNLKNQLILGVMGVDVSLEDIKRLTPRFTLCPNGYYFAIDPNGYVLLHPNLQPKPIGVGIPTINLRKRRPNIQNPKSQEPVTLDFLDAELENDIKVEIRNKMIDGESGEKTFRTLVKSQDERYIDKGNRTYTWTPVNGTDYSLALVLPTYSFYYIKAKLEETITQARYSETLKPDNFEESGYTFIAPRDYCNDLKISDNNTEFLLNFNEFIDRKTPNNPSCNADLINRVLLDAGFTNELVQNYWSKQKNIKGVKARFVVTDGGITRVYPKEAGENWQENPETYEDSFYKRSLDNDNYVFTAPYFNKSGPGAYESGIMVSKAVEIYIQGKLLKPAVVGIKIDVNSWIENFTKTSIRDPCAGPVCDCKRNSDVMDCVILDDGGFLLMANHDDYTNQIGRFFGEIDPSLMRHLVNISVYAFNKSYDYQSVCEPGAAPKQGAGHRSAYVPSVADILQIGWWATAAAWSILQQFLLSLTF
human Cav2.2, sequence (P54289 952-1103 partner limits assumed): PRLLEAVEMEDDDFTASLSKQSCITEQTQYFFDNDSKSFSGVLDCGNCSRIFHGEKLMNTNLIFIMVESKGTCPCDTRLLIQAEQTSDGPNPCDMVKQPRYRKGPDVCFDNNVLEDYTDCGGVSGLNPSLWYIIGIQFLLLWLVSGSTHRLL
human Cav2.2, sequence (P54284 whole entry partner): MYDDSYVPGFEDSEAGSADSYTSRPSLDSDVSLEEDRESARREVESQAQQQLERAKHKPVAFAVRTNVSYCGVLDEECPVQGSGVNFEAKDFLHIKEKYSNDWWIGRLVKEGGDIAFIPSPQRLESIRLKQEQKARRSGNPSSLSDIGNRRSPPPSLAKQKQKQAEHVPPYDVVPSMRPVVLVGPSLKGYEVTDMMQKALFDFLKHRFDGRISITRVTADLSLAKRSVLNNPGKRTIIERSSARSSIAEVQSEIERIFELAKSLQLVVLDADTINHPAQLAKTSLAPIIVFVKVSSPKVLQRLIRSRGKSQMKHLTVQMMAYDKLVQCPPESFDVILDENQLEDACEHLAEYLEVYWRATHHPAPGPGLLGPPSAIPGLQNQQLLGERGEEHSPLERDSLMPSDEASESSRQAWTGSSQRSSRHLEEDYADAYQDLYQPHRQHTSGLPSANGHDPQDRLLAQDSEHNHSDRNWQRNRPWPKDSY

Row | IC50 [µM] | SMILES
1 | 2.02 | COc1ccc(CC2(C)CN(C(=O)CN3CCC(c4ccccc4)(c4ccccc4)C3=O)CCN2)cc1OC (centres unmarked) [Example 167, 1-{2-[3-(3,4-dimethoxybenzyl)-3-methylpiperazin-1-yl]-2-oxoethyl}-3,3-diphenylpyrrolidin-2-one]
2 | 9.41 | O=C1N(Cc2nc(-c3cccc(C(F)(F)F)c3)no2)CCCC1(c1ccccc1)c1ccccc1 [Example 179, 3,3-diphenyl-1-({3-[3-(trifluoromethyl)phenyl]-1,2,4-oxadiazol-5-yl}methyl)piperidin-2-one]
3 | 2.68 | O=C(CN1CCCC(c2ccccc2)(c2ccccc2)C1=O)N1CCCCC1c1ccc(F)cc1 (centres unmarked) [Example 74, 1-{2-[2-(4-fluorophenyl)piperidin-1-yl]-2-oxoethyl}-3,3-diphenylpiperidin-2-one]
4 | 0.49 | O=C(CN1CCC(c2ccccc2)(c2ccccc2)C1=O)N[C@@H]1CC[C@H]2CN(Cc3cccc(C(F)(F)F)c3)C[C@H]21 (relative stereo) [Example 57, 2-(2-oxo-3,3-diphenylpyrrolidin-1-yl)-N-{(3aS*,4R*,6aR*)-2-[3-(trifluoromethyl)benzyl]octahydrocyclopenta[c]pyrrol-4-yl}acetamide]
5 | 3.12 | COc1ccc(C2(c3ccc(OC)cc3)CCCN(CCN(C)CCCOc3cc(OC)cc(OC)c3)C2=O)cc1 [Example 115, 1-{2-[[3-(3,5-dimethoxyphenoxy)propyl](methyl)amino]ethyl}-3,3-bis(4-methoxyphenyl)piperidin-2-one]
6 | 11.6 | COc1ccc(CCN(C)C(=O)CN2CCCC(c3ccccc3)(c3ccccc3)C2=O)cc1OC [Example 143, N-[2-(3,4-dimethoxyphenyl)ethyl]-N-methyl-2-(2-oxo-3,3-diphenylpiperidin-1-yl)acetamide]
7 | 3.79 | O=C(CN1CCCC(c2ccccc2)(c2ccccc2)C1=O)N1CCC(=NOCc2ccccc2)CC1 [Example 163, 1-(2-{4-[(benzyloxy)imino]piperidin-1-yl}-2-oxoethyl)-3,3-diphenylpiperidin-2-one]
8 | 2.6 | O=C(CN1CCC(c2ccccc2)(c2ccccc2)C1=O)NCC1CCN(Cc2ccccc2)C1 (centres unmarked) [Example 39, N-[(1-benzylpyrrolidin-3-yl)methyl]-2-(2-oxo-3,3-diphenylpyrrolidin-1-yl)acetamide]
9 | 6.78 | O=C1N(S(=O)(=O)c2cccc(C(F)(F)F)c2)CCCC1(c1ccccc1)c1ccccc1 [Example 146, 3,3-diphenyl-1-{[3-(trifluoromethyl)phenyl]sulfonyl}piperidin-2-one]
10 | 8.9 | O=C(CN1CCCC(c2ccccc2)C1=O)N1CCc2ccc(C(F)(F)F)cc2C1 (centres unmarked) [Example 96, 1-{2-oxo-2-[7-(trifluoromethyl)-3,4-dihydroisoquinolin-2(1H)-yl]ethyl}-3-phenylpiperidin-2-one]
11 | 1 | CN(C(=O)CN1CCCC(c2ccccc2)(c2ccccc2)C1=O)C1CCN(Cc2cccc(C(F)(F)F)c2)CC1 [Example 197, N-methyl-2-(2-oxo-3,3-diphenylpiperidin-1-yl)-N-{1-[3-(trifluoromethyl)benzyl]piperidin-4-yl}acetamide]
12 | 2.04 | O=C(CCCN1CCC(c2ccccc2)(c2ccccc2)C1=O)N1Cc2ccc(C(F)(F)F)cc2C1 [Example 223, 1-{4-oxo-4-[5-(trifluoromethyl)-1,3-dihydro-2H-isoindol-2-yl]butyl}-3,3-diphenylpyrrolidin-2-one]
13 | 1.74 | O=C(CN1CCCC(c2ccccc2)(c2ccccc2)C1=O)N1CCC(C(O)(c2ccccc2)c2ccccc2)CC1 [Example 78, 1-(2-{4-[hydroxy(diphenyl)methyl]piperidin-1-yl}-2-oxoethyl)-3,3-diphenylpiperidin-2-one]
14 | 2.36 | O=C(CN1CCCC(c2ccccc2)(c2ccccc2)C1=O)N1CCN(C(c2ccc(F)cc2)c2ccc(F)cc2)CC1 [Example 82, 1-(2-{4-[bis(4-fluorophenyl)methyl]piperazin-1-yl}-2-oxoethyl)-3,3-diphenylpiperidin-2-one]
15 | 1.86 | O=C(CN1CCCC(c2ccccc2)(c2ccccc2)C1=O)N1CCC(Oc2cccc(C(F)(F)F)c2)CC1 [Example 162, 1-(2-oxo-2-{4-[3-(trifluoromethyl)phenoxy]piperidin-1-yl}ethyl)-3,3-diphenylpiperidin-2-one]
16 | 4.13 | O=C(CN1CCCC(c2ccccc2)(c2ccccc2)C1=O)N1CCC(O)(c2ccc(Cl)c(C(F)(F)F)c2)CC1 [Example 250, 1-(2-{4-[4-chloro-3-(trifluoromethyl)phenyl]-4-hydroxypiperidin-1-yl}-2-oxoethyl)-3,3-diphenylpiperidin-2-one]
17 | 4.02 | O=C(CN1CCC(c2ccccc2)(c2ccccc2)C1=O)N1CCN(c2ccc(Cl)cn2)CC1 [Example 53, 1-{2-[4-(5-chloropyridin-2-yl)piperazin-1-yl]-2-oxoethyl}-3,3-diphenylpyrrolidin-2-one]
18 | 0.41 | O=C(CN1CCCC(c2ccccc2)(c2ccccc2)C1=O)N1CCN(S(=O)(=O)c2cccc(C(F)(F)F)c2)CC1 [Example 84, 1-[2-oxo-2-(4-{[3-(trifluoromethyl)phenyl]sulfonyl}piperazin-1-yl)ethyl]-3,3-diphenylpiperidin-2-one]
19 | 2.62 | O=C(CN1CCC(c2ccc(F)cc2)(c2ccc(F)cc2)C1=O)Nc1ccc(C(F)(F)F)cn1 [Example 217, 2-[3,3-bis(4-fluorophenyl)-2-oxopyrrolidin-1-yl]-N-[5-(trifluoromethyl)pyridin-2-yl]acetamide]
20 | 0.87 | O=C(CN1CCC(c2ccccc2)(c2ccccc2)C1=O)NCC(c1ccccc1)c1ccccc1 [Example 15, N-(2,2-diphenylethyl)-2-(2-oxo-3,3-diphenylpyrrolidin-1-yl)acetamide]
21 | 2.35 | CN(CCc1ccccc1)CCN1CCCC(c2ccc(F)cc2)(c2ccc(F)cc2)C1=O [Example 122, 3,3-bis(4-fluorophenyl)-1-{2-[methyl(2-phenylethyl)amino]ethyl}piperidin-2-one]
22 | > 30 | CC(C)(C)OC(=O)Nc1ccc(-c2noc(CN3CCC(c4ccccc4)(c4ccccc4)C3=O)n2)cn1 [Example 231, tert-butyl 5-{5-[(2-oxo-3,3-diphenylpyrrolidin-1-yl)methyl]-1,2,4-oxadiazol-3-yl}pyridin-2-ylcarbamate]
23 | 5.74 | COc1ccc(OC2CCN(C(=O)CN3CCCC(c4ccccc4)(c4ccccc4)C3=O)CC2)cc1 [Example 161, 1-{2-[4-(4-methoxyphenoxy)piperidin-1-yl]-2-oxoethyl}-3,3-diphenylpiperidin-2-one]
24 | 1 | CN(CCN1CCC(c2ccc(F)cc2)(c2ccc(F)cc2)C1=O)CC(O)COc1cccc2ncccc12 (centres unmarked) [Example 108, 3,3-bis(4-fluorophenyl)-1-{2-[[2-hydroxy-3-(quinolin-5-yloxy)propyl](methyl)amino]ethyl}pyrrolidin-2-one]
25 | 2.68 | COc1ccc(C2(c3ccc(OC)cc3)CCCN(CCCN(C)CCc3cc(OC)cc(OC)c3)C2=O)cc1 [Example 119, 1-{3-[[2-(3,5-dimethoxyphenyl)ethyl](methyl)amino]propyl}-3,3-bis(4-methoxyphenyl)piperidin-2-one]
26 | 0.41 | O=C(CN1CCCC(c2ccccc2)(c2ccccc2)C1=O)NC1CCN(C(c2ccccc2)c2ccccc2)CC1 [Example 85, N-(1-benzhydrylpiperidin-4-yl)-2-(2-oxo-3,3-diphenylpiperidin-1-yl)acetamide]
